Patent publication US20250041429A1, “COMPOUND HAVING BTK PROTEIN DEGRADATION ACTIVITY, AND MEDICAL USES THEREOF” (UBIX THERAPEUTICS, INC., priority 2021, published 2025)

Molecular target: T1, BTK protein (Homo sapiens, UniProt Q06187)
T1 construct: endogenous in cells; host or cells: TMD-8 cells
Test: Measurement of BTK protein degradation ability in TMD-8 cells (Western blotting)
Assay type: cell-based
Conditions: harvested after 24 hours; for BTK degradation (%) 1 nM: compound 1 nM; for BTK degradation (%) 10 nM: compound 10 nM; for BTK degradation (%) 100 nM: compound 100 nM
Procedure, shortened: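 TMD-8 cells (1×10^6/mL) were treated for 24 h with compound at 0.1, 1, 10 μM or 0.0001–0.1 μM, with DMSO as vehicle control. RIPA lysates were normalized by BCA assay. BTK was detected by Western blot with anti-BTK, using GAPDH or β-actin as loading controls, and imaged on LI-COR Odyssey.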

T1 sequence (Q06187 whole entry): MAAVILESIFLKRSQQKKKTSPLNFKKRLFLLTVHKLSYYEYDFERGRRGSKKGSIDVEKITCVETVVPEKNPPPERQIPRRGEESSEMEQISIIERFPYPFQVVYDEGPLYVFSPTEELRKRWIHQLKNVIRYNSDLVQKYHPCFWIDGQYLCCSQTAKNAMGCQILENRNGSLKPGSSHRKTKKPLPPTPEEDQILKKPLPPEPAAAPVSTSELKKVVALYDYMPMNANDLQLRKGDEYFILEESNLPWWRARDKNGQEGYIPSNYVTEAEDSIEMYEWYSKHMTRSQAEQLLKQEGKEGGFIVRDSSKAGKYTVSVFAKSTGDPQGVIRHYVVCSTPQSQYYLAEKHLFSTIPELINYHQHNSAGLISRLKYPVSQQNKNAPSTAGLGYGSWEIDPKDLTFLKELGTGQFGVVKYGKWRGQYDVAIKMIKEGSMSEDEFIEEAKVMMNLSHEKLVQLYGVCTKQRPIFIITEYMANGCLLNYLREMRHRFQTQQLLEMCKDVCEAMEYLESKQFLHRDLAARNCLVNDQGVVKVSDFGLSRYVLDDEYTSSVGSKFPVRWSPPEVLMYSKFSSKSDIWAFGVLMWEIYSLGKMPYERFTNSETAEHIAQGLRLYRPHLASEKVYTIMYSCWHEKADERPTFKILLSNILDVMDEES

SMILES | BTK degradation (%) 1 nM [%] | BTK degradation (%) 10 nM [%] | BTK degradation (%) 100 nM [%]
Cc1cc(-c2ccnc(Nc3ccc(C4CCN(CC5CCN(c6cccc(N7CCC(=O)NC7=O)c6)CC5)CC4)cc3)n2)ccc1CNC(=O)c1cn(C(C)(C)C)nn1 [Example 78, 1-(tert-butyl)-N-(4-(2-((4-(1-((1-(3-(2,4-dioxotetrahydropyrimidin-1 (2H)-yl)phenyl)piperidin-4-yl)methyl)piperidin-4-yl)phenyl)amino)pyrimidin-4-yl)-2-methylbenzyl)-1H-1,2,3-triazole-4-carboxamide] | 43.5 | 93.5 | 99.0
Cc1cc(-c2ccnc(Nc3ccc(C4CCN(CC5CCN(c6ccc(N7CCC(=O)NC7=O)cc6)CC5)CC4)cc3)n2)ccc1CNC(=O)c1cn(C(C)(C)C)nn1 [Example 79, 1-(tert-butyl)-N-(4-(2-((4-(1-((1-(4-(2,4-dioxotetrahydropyrimidin-1 (2H)-yl)phenyl)piperidin-4-yl)methyl)piperidin-4-yl)phenyl)amino)pyrimidin-4-yl)-2-methylbenzyl)-1H-1,2,3-triazole-4-carboxamide] | 26.0 | 92.5 | 98.0
Cc1cc(-c2ccnc(Nc3ccc(N4CCN(CC5CCN(c6cccc(N7CCC(=O)NC7=O)c6)CC5)CC4)cc3)n2)ccc1CNC(=O)c1cnn(C(C)C)c1 [Example 80, N-(4-(2-((4-(4-((1-(3-(2,4-dioxotetrahydropyrimidin-1 (2H)-yl)phenyl)piperidin-4-yl)methyl)piperazin-1-yl)phenyl)amino)pyrimidin-4-yl)-2-methylbenzyl)-1-isopropyl-1H-pyrazole-4-carboxamide] | 73.5 | 98.0 | 99.5
Cc1cc(-c2ccnc(Nc3ccc(N4CCN(CC5CCN(c6cccc(N7CCC(=O)NC7=O)c6)CC5)CC4)cc3)n2)ccc1CNC(=O)c1cnn(C(C)(C)C)c1 [Example 81, 1-(tert-butyl)-N-(4-(2-((4-(4-((1-(3-(2,4-dioxotetrahydropyrimidin-1 (2H)-yl)phenyl)piperidin-4-yl)methyl)piperazin-1-yl)phenyl)amino)pyrimidin-4-yl)-2-methylbenzyl)-1H-pyrazole-4-carboxamide] | 65.0 | 97.0 | 99.5
Cc1cc(-c2ccnc(Nc3ccc(N4CCN(CC5CCN(c6cccc(N7CCC(=O)NC7=O)c6)CC5)CC4)nc3)n2)ccc1CNC(=O)c1cnn(C(C)C)c1 [Example 82, N-(4-(2-((6-(4-((1-(3-(2,4-dioxotetrahydropyrimidin-1 (2H)-yl)phenyl)piperidin-4-yl)methyl)piperazin-1-yl)pyridin-3-yl)amino)pyrimidin-4-yl)-2-methylbenzyl)-1-isopropyl-1H-pyrazole-4-carboxamide] | 32.0 | 87.5 | 99.5
Cc1cc(-c2ccnc(Nc3ccc(N4CCN(CC5CCN(c6cccc(N7CCC(=O)NC7=O)c6)CC5)CC4)nc3)n2)ccc1CNC(=O)c1cnn(C(C)(C)C)c1 [Example 83, 1-(tert-butyl)-N-(4-(2-((6-(4-((1-(3-(2,4-dioxotetrahydropyrimidin-1 (2H)-yl)phenyl)piperidin-4-yl)methyl)piperazin-1-yl)pyridin-3-yl)amino)pyrimidin-4-yl)-2-methylbenzyl)-1H-pyrazole-4-carboxamide] | 51.0 | 96.5 | 99.5
Cc1cc(-c2ccnc(Nc3ccc(C4CCN(CC5CCN(c6cccc(N7CCC(=O)NC7=O)c6)CC5)CC4)cc3)n2)ccc1CNC(=O)c1cnn(C(C)C)c1 [Example 84, N-(4-(2-((4-(1-((1-(3-(2,4-dioxotetrahydropyrimidin-1 (2H)-yl)phenyl)piperidin-4-yl)methyl)piperidin-4-yl)phenyl)amino)pyrimidin-4-yl)-2-methylbenzyl)-1-isopropyl-1H-pyrazole-4-carboxamide] | 36.0 | 92.0 | 99.0
Cc1cc(-c2ccnc(Nc3ccc(C4CCN(CC5CCN(c6cccc(N7CCC(=O)NC7=O)c6)CC5)CC4)cc3)n2)ccc1CNC(=O)c1cnn(C(C)(C)C)c1 [Example 85, 1-(tert-butyl)-N-(4-(2-((4-(1-((1-(3-(2,4-dioxotetrahydropyrimidin-1 (2H)-yl)phenyl)piperidin-4-yl)methyl)piperidin-4-yl)phenyl)amino)pyrimidin-4-yl)-2-methylbenzyl)-1H-pyrazole-4-carboxamide] | 45.5 | 93.5 | 98.5
COc1ccc(C(=O)N2CCC(CN3CCN(c4ccc(Nc5nccc(-c6ccc(CNC(=O)N7CC(OC(C)C)C7)c(C)c6)n5)cc4)CC3)CC2)cc1N1CCC(=O)NC1=O [Example 86, N-(4-(2-((4-(4-((1-(3-(2,4-dioxotetrahydropyrimidin-1 (2H)-yl)-4-methoxybenzoyl)piperidin-4-yl)methyl)piperazin-1-yl)phenyl)amino)pyrimidin-4-yl)-2-methylbenzyl)-3-isopropoxyazetidine-1-carboxamide] | 22 | 90 | 97.5
Cc1cc(-c2ccnc(Nc3ccc(N4CCN(CC5CCN(C(=O)c6cccc(NC7CCC(=O)NC7=O)c6)CC5)CC4)cc3)n2)ccc1CNC(=O)N1CC(OC(C)C)C1 (stereo not drawn) [Example 87, N-(4-(2-((4-(4-((1-(3-((2,6-dioxopiperidin-3-yl)amino)benzoyl)piperidin-4-yl)methyl)piperazin-1-yl)phenyl)amino)pyrimidin-4-yl)-2-methylbenzyl)-3-isopropoxyazetidine-1-carboxamide] | 36.5 | 94.5 | 98.5
Cc1cc(-c2ccnc(Nc3ccc(N4CCN(CC5CN(C(=O)c6cccc(NC7CCC(=O)NC7=O)c6)C5)CC4)cc3)n2)ccc1CNC(=O)N1CC(OC(C)C)C1 (stereo not drawn) [Example 88, N-(4-(2-((4-(4-((1-(3-((2,6-dioxopiperidin-3-yl)amino)benzoyl)azetidin-3-yl)methyl)piperazin-1-yl)phenyl)amino)pyrimidin-4-yl)-2-methylbenzyl)-3-isopropoxyazetidine-1-carboxamide] | 35.5 | 94.5 | 98.5
Cc1cc(-c2ccnc(Nc3ccc(N4CCN(CC5CCN(C(=O)c6cccc(N7CCC(=O)NC7=O)c6)CC5)CC4)cc3)n2)ccc1CNC(=O)N1CC(OC(C)C)C1 [Example 89, N-(4-(2-((4-(4-((1-(3-(2,4-dioxotetrahydropyrimidin-1 (2H)-yl)benzoyl)piperidin-4-yl)methyl)piperazin-1-yl)phenyl)amino)pyrimidin-4-yl)-2-methylbenzyl)-3-isopropoxyazetidine-1-carboxamide] | −0.5 | 33 | 87
